{"source": "ChEMBL document CHEMBL1201862", "about": "“PubChem BioAssay data set” (2004)", "key": {"[1]": {"molecular_target": "T1, 1-phosphatidylinositol 4,5-bisphosphate phosphodiesterase beta-3 (Homo sapiens, UniProt Q01970)", "T1 sequence (Q01970 whole entry)": "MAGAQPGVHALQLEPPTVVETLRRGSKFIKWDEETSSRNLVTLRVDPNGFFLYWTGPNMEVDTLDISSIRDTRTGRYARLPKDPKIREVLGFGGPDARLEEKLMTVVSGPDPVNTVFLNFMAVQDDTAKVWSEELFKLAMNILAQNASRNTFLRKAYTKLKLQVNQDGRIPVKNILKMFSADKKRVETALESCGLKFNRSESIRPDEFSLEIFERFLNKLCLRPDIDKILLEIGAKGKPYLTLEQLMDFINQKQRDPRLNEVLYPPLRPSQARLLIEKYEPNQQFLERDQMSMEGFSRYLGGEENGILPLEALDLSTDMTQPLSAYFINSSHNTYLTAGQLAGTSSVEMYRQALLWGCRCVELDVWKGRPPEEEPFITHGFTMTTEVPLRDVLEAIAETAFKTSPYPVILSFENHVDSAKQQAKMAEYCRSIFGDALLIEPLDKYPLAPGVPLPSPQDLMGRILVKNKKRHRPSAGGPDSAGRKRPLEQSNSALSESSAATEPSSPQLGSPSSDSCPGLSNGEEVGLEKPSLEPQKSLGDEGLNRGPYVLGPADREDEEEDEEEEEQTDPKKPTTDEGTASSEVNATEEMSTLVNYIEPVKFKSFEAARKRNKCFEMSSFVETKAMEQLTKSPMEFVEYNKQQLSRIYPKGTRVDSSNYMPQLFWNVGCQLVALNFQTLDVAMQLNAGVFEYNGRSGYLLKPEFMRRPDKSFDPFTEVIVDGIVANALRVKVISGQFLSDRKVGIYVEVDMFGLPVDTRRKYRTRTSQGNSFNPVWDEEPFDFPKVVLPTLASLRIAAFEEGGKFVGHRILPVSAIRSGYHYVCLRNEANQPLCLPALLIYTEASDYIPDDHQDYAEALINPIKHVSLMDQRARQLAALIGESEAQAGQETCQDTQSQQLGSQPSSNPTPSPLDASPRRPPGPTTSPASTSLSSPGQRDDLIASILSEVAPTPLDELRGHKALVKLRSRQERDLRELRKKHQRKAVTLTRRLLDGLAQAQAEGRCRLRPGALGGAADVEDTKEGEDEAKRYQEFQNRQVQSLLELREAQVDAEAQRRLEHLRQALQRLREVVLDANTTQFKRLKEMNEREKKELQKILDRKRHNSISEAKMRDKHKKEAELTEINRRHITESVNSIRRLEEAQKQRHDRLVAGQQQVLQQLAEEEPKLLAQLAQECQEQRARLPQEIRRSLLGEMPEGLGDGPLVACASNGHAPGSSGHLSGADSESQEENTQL", "experiment": "Fluorescence-based biochemical high throughput dose response assay to identify inhibitors of phospholipase C isozymes (PLC-B3)."}, "[2]": {"molecular_target": "T2, 1-phosphatidylinositol 4,5-bisphosphate phosphodiesterase gamma-1 (Homo sapiens, UniProt P19174)", "T2 sequence (P19174 whole entry)": "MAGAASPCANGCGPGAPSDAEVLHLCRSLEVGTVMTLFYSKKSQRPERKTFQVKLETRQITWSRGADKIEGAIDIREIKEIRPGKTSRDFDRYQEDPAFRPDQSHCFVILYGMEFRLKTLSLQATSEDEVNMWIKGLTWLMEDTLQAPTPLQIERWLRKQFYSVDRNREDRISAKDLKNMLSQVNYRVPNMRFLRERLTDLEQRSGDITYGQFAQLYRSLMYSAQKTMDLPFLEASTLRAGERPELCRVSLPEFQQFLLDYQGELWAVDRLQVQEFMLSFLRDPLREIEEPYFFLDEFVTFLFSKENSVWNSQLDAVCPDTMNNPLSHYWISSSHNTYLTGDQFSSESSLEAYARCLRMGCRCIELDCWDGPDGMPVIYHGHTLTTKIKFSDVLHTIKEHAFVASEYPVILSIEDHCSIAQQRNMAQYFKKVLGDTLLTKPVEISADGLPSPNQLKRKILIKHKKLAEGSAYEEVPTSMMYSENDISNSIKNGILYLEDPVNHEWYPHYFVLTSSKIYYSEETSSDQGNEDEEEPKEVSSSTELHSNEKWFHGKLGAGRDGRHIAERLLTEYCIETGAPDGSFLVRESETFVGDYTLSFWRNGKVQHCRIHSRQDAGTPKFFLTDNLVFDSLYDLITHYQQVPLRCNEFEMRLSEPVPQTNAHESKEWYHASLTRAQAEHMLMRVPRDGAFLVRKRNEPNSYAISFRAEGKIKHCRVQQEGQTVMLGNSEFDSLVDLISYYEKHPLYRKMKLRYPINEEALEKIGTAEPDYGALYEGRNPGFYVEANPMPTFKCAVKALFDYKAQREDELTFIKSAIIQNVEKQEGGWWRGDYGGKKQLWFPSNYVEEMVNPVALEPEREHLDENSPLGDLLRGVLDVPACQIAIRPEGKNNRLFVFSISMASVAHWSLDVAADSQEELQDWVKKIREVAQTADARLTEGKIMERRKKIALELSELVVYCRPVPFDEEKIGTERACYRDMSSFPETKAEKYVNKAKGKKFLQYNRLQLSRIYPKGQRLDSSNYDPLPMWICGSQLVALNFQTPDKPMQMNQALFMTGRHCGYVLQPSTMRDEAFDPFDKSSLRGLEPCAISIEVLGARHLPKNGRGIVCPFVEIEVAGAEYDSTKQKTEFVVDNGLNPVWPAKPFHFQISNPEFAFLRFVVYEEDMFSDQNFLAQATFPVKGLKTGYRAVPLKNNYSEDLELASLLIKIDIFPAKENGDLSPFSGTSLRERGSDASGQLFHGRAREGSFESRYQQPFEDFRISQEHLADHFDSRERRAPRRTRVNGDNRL", "experiment": "Counterscreen for inhibitors of phospholipase C isozymes (PLC-B3): Fluorescence-based biochemical high throughput dose response assay to identify inhibitors of phospholipase C isozymes (PLC-gamma1)."}, "[3]": {"molecular_target": "T3, Tyrosyl-DNA phosphodiesterase 2 (Homo sapiens, UniProt O95551)", "T3 sequence (O95551 whole entry)": "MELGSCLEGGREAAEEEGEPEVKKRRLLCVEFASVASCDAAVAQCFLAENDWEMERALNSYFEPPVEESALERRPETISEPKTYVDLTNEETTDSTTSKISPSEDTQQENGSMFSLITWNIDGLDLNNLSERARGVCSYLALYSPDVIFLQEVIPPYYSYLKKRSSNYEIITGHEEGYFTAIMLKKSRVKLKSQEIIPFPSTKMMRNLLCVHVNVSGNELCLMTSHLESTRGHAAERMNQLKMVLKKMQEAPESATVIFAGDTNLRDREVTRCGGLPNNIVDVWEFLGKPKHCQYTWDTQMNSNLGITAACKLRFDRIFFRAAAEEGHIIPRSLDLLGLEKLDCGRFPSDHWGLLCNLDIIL", "experiment": "potency against TDP2 phosphodiesterase activity – biochemical, epi absorbance, IC50, dose response (AID 743297)"}, "[4]": {"molecular_target": "T4, Histone-lysine N-methyltransferase NSD2 (Homo sapiens, UniProt O96028)", "T4 sequence (O96028 whole entry)": "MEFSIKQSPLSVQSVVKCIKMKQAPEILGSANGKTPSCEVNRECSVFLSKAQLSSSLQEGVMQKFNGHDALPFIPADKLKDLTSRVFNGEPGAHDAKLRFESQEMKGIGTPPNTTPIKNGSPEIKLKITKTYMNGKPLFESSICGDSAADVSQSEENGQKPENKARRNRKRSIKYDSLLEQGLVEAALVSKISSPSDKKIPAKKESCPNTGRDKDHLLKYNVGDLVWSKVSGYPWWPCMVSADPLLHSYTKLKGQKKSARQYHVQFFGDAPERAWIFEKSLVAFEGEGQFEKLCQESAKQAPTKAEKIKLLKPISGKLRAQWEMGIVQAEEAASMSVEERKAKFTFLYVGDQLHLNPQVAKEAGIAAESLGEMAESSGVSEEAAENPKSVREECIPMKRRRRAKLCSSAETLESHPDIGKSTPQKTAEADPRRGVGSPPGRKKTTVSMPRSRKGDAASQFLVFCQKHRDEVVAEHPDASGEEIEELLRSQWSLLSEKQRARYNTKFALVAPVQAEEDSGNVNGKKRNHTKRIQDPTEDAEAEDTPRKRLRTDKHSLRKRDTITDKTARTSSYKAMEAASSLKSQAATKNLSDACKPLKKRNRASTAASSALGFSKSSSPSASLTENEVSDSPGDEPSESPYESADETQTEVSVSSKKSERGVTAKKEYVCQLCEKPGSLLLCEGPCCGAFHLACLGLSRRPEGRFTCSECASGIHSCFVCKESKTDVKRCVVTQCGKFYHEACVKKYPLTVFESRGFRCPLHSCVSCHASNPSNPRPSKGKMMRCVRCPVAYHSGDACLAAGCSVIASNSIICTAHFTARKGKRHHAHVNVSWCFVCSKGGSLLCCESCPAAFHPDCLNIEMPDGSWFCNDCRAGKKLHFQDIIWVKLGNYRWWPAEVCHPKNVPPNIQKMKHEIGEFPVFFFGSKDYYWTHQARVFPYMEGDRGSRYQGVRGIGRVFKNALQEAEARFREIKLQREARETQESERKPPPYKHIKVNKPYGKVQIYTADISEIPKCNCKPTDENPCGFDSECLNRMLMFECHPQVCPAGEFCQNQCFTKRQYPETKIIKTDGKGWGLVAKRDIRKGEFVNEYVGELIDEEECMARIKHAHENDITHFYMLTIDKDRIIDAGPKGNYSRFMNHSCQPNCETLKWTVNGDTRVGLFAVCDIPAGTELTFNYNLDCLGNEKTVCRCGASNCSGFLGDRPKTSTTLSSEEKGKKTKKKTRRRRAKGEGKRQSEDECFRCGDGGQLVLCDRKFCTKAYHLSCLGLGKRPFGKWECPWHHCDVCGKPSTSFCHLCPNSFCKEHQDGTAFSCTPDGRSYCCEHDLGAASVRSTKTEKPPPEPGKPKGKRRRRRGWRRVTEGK", "assay_type": "biochemical"}, "[5]": {"molecular_target": "T5, Caspase-6 (Homo sapiens, UniProt P55212)", "T5 sequence (P55212 whole entry)": "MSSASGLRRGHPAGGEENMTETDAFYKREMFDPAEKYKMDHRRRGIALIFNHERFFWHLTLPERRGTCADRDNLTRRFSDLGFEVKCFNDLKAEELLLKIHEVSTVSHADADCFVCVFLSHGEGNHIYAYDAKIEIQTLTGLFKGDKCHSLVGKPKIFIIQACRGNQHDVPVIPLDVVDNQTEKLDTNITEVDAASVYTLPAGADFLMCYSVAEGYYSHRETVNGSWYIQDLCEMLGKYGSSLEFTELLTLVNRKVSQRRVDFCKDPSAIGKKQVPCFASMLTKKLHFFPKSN", "experiment": "inhibition of CASP6 peptide cleavage – biochemical, VEID-R110 fluorescence, cherry-pick, dose response (AID 720632)"}, "[6]": {"experiment": "IGROV1 cell killing – plate reader, dry powder samples, PAX8 inhibitor project, dose response (AID 743043)", "assay_type": "functional, cell-based", "details": "IGROV-1"}, "[7]": {"experiment": "A2780 cell killing – plate reader, dry powder samples, cytotoxicity control, dose response (AID 743046)", "assay_type": "functional, cell-based"}, "[8]": {"experiment": "OVCAR-3 cell viability loss – plate reader, dry powder samples, PAX8 inhibitor project, dose response (AID 743044)", "assay_type": "functional, cell-based"}, "[9]": {"molecular_target": "Paired box protein Pax-8 (Homo sapiens, UniProt Q06710)", "sequence (Q06710 whole entry)": "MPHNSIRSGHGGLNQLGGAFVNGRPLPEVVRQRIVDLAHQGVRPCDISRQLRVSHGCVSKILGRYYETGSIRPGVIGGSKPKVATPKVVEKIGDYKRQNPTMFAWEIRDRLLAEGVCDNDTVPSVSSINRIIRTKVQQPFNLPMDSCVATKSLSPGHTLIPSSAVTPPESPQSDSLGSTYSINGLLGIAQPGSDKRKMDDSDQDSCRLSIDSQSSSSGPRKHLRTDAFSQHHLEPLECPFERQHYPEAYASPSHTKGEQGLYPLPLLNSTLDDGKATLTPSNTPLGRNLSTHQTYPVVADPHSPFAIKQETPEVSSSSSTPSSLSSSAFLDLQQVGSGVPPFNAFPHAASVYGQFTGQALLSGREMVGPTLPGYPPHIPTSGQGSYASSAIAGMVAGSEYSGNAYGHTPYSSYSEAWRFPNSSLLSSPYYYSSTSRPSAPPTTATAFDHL", "experiment": "PAX8 transcriptional activity inhibition in RMG-I – RMG-I cells, luciferase, cherry-pick, dose response (AID 687027);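 note: luciferase reporter driven by Pax8 target thyroperoxidase promoter measured by SteadyGlo luminescence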", "assay_type": "functional, cell-based"}, "[10]": {"experiment": "OVCAR8 cell viability loss – plate reader, dry powder samples, PAX8 project, dose response (AID 743197)", "assay_type": "functional, cell-based", "details": "OVCAR-8"}}, "note": "Activity calls are given as the source filed them.", "data": [{"smiles": "COc1ccccc1-c1cc(C(=O)Nc2ccc(F)cc2F)no1", "values": [{"measurement": "IC50", "setting": "[1]", "result": "> 122 µM (inactive)"}, {"measurement": "IC50", "setting": "[2]", "result": "> 122 µM (inactive)"}]}, {"smiles": "COc1cc(N)c2ncccc2c1Br", "values": [{"measurement": "IC50", "setting": "[3]", "result": "> 128 µM (inactive)"}, {"measurement": "AC50", "setting": "[4]", "result": "13.1 µM (active)"}, {"measurement": "AC50", "setting": "[5]", "result": "10 µM (active)"}]}, {"smiles": "C[C@@H]1CCCCO[C@H](CN(C)Cc2ccc(Cl)c(Cl)c2)[C@@H](C)CN([C@@H](C)CO)C(=O)c2cc(NC(=O)Nc3ccc(F)cc3)ccc2O1", "values": [{"measurement": "AC50", "setting": "[6]", "result": "29.6 µM (active)"}, {"measurement": "AC50", "setting": "[7]", "result": "63.6 µM (active)"}, {"measurement": "AC50", "setting": "[8]", "result": "51.3 µM (active)"}, {"measurement": "AC50", "setting": "[9]", "result": "6.33 µM (active)"}, {"measurement": "AC50", "setting": "[10]", "result": "> 70 µM (inactive)"}]}, {"smiles": "O=C(CCc1ccccc1)N[C@H]1[C@@H](OC(=O)c2cnccn2)CCC[C@@]12C(=O)N(Cc1ccccc1)c1ccccc12", "values": [{"measurement": "IC50", "setting": "[1]", "result": "> 122 µM (inactive)"}, {"measurement": "IC50", "setting": "[2]", "result": "> 122 µM (inactive)"}]}, {"smiles": "CO[C@H]1CN(C)C(=O)c2cc(NC(C)=O)ccc2OC[C@@H](C)N(C(=O)CC2CC2)C[C@H]1C", "values": [{"measurement": "AC50", "setting": "[5]", "result": "12.1 µM (active)"}]}]}
